Data from US4595695A, “1'-ethoxycarbonyloxyethyl ester of valproic acid, its preparation and pharmaceutical compositions containing it” (Teva Pharmaceutical Industries Ltd., priority 1983, dated 1986).
Where two headings read alike, the source gives them in different places.

Legend:
[1] = oral; cited from earlier work
[2] = VPA plasma levels after oral administration of the ester to five dogs; type: in vivo, dog; set-up: key: --: Undetectable concentration of VPA
Experimental: Concentration of VPA after oral administration of the ester of this invention to five dogs are presented in the following Table I. Each plasma sample was assayed three times and the results presented in Table I are mean ±S.D. of these analyses.

[3] = stability of the ester in 0.01 N HCl; type: physicochemical; settings: room temperature, first order kinetics, read-out: stability half-life time in 0.01 N HCl (converted)
Experimental: (§1) The ester was quite stable at -20° C. or after HCl was added to the plasma mixture. […] All these half-life time calculations were done by assuming a first order linear kinetics of hydrolysis of the ester to valproic acid.

[4] = stability of the ester in plasma in vitro; type: in vitro ADME
Experimental: as §1

[5] = expected VPA plasma concentration after single oral administration of the ester to man; type: in vivo
Excerpt: Based on the prolonged absorption of VPA after administration of the ester, this new prodrug might be administered to epileptic patients twice or even once a day.

rats = assay: toxicity after oral administration to rats; type: in vivo, rat; settings: 20 and 100 mg/kg
[6] = pharmacokinetic parameters of VPA in dogs after oral administration of the ester or DEPAKINE;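 on all read-outs here: comparator arm received VPA orally as the free acid rather than as the ester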; type: in vivo, dog; settings: for ka, absorption rate constant / CL/F / AUC / Vd/F / k el / half-life / Tmax: VPA, 400 mg; for CL/F / AUC / Vd/F / k el / half-life / Tmax: dog, in vivo, po; for AUC: read-out: AUC, area under the plasma conc. vs. time curve (row head is drawing 3) (converted); for Vd/F: read-out: V; for k el: read-out: ke, elimination rate constant (converted); for half-life: read-out: t1/2 elimin. (converted); for Tmax: read-out: t max obs, observed time to reach peak plasma concentration (converted)
animals = settings: in vivo; cited from earlier work
[7] = physiological pH; cited from earlier work
[8] = combination therapy with other anti-epileptic drugs; cited from earlier work

In the case of `CCCC(CCC)C(N)=O` [VPD, Valpromide-dipropylacetamide], the “absorption compared with VPA” value [1] is listed as “slower absorption than VPA” and the bioavailability [1] is listed as “low bioavailability”.
In the case of `CCCC(CCC)C(=O)OC(C)OC(=O)OCC` (stereo not drawn) [1'-ethoxycarbonyloxyethyl ester, 1'-ethoxycarbonyloxyethyl ester of valproic acid], the VPA plasma levels ([2]; dog 1, 15 min) is reported as “--”, the VPA plasma levels ([2]; dog 1, 660 min) is reported as “--” and the VPA plasma levels ([2]; dog 1, 720 min) is reported as “--”. The VPA plasma levels ([2]; dog 1, 780 min) was “--”, the VPA plasma levels ([2]; dog 1, 840 min) was “--” and the VPA plasma levels ([2]; dog 1, 900 min) was “--”. For the same compound, the VPA plasma levels ([2]; dog 2, 660 min) was “--”, the VPA plasma levels ([2]; dog 2, 840 min) was “--” and the VPA plasma levels ([2]; dog 2, 900 min) was “--”. For the same compound, the VPA plasma levels ([2]; dog 3, 720 min) was “--”, the VPA plasma levels ([2]; dog 3, 780 min) was “--” and the VPA plasma levels ([2]; dog 3, 840 min) was “--”. For the same compound, the VPA plasma levels ([2]; dog 3, 900 min) was “--”, the VPA plasma levels ([2]; dog 4, 45 min) was “--” and the VPA plasma levels ([2]; dog 4, 60 min) was “--”. For the same compound, the VPA plasma levels ([2]; dog 4, 75 min) was “--”, the VPA plasma levels ([2]; dog 4, 210 min) was “--” and the VPA plasma levels ([2]; dog 4, 660 min) was “--”. For the same compound, the VPA plasma levels ([2]; dog 4, 720 min) was “--”, the VPA plasma levels ([2]; dog 4, 780 min) was “--” and the VPA plasma levels ([2]; dog 4, 840 min) was “--”. The VPA plasma levels ([2]; dog 4, 900 min) was “--”, the VPA plasma levels ([2]; dog 5, 30 min) was “--” and the VPA plasma levels ([2]; dog 5, 660 min) was “--”. For the same compound, the VPA plasma levels ([2]; dog 5, 780 min) was “--”, the VPA plasma levels ([2]; dog 5, 840 min) was “--” and the VPA plasma levels ([2]; dog 5, 900 min) was “--”. The half-life [3] was 32.4 h, the “stability at -20° C. or after HCl was added to the plasma mixture” value ([4]; -20° C. or HCl added to plasma mixture) was “quite stable” and the “transformation to valproic acid in plasma” value ([4]; plasma in vitro, room temperature) was “transformed to valproic acid”. For the same compound, the half-life ([4]; plasma in vitro, room temperature, first order kinetics) was 2.23 h, the “expected VPA concentration profile in man” value [5] was “prolonged pseudo steady state concentration” and the toxicity (rats) was “did not show any toxicity”. The “ka, absorption rate constant” value ([6]; dog 1, oral) was 0.015 min⁻¹, the “ka, absorption rate constant” value ([6]; dog 2, oral) was 0.02 min⁻¹ and the “ka, absorption rate constant” value ([6]; dog 3, oral) was 0.02 min⁻¹. The “ka, absorption rate constant” value ([6]; dog 4, oral) was 0.01 min⁻¹, the “ka, absorption rate constant” value ([6]; dog 5, oral) was 0.04 min⁻¹ and the CL/F ([6]; dog 1) was 66.7 mL/min. For the same compound, the AUC ([6]; dog 1, oral) was 76800 ng·h/mL, the Vd/F ([6]; dog 1, oral) was 12.1 L and the k el ([6]; dog 1, oral) was 9.17e-05 s⁻¹. For the same compound, the half-life ([6]; dog 1, oral) was 2.1 h, the Tmax ([6]; dog 1, oral) was 2 h and the CL/F ([6]; dog 2) was 34.8 mL/min. It also gave an AUC ([6]; dog 2, oral) of 167000 ng·h/mL, a Vd/F ([6]; dog 2, oral) of 5.35 L and a k el ([6]; dog 2, oral) of 0.000108 s⁻¹. It also gave a half-life ([6]; dog 2, oral) of 1.78 h, a Tmax ([6]; dog 2, oral) of 1.4 h and a CL/F ([6]; dog 3) of 61.5 mL/min. The AUC ([6]; dog 3, oral) was 67700 ng·h/mL, the Vd/F ([6]; dog 3, oral) was 5.08 L and the k el ([6]; dog 3, oral) was 0.00202 s⁻¹. It also gave a half-life ([6]; dog 3, oral) of 0.95 h, a Tmax ([6]; dog 3, oral) of 1.17 h and a CL/F ([6]; dog 4) of 56.5 mL/min. The AUC ([6]; dog 4, oral) was 81200 ng·h/mL, the Vd/F ([6]; dog 4, oral) was 8.69 L and the k el ([6]; dog 4, oral) was 0.000108 s⁻¹. It also gave a half-life ([6]; dog 4, oral) of 1.78 h, a Tmax ([6]; dog 4, oral) of 2.5 h and a CL/F ([6]; dog 5) of 42.7 mL/min. For the same compound, the AUC ([6]; dog 5, oral) was 142000 ng·h/mL, the Vd/F ([6]; dog 5, oral) was 7.24 L and the Tmax ([6]; dog 5, oral) was 1.2 h. For the same compound, the “VPA plasma levels between 30 to 240 minutes” value ([6]; dogs, after ester administration) was “More or less constant plasma levels”, the “difference between the maximal and minimal steady state levels” value ([6]; dogs, between 30 to 240 minutes) was “less than a two-fold difference” and the “distribution and elimination parameters of VPA compared between the two drug products” value ([6]; dogs, exception: V in dog number 1) was “not significantly different”. For the same compound, the “absorption rate of VPA compared with free acid” value ([6]; dogs, oral, ester versus free acid) was “two to five times slower”.
In the case of `CCCC(CCC)COC(=O)C(CCC)CCC` [2-propylpentanol-di-n-propyl acetate], the toxicity to animals (animals) is listed as “very toxic to animals”.
For `CCCC(CCC)C(=O)O` [VPA, di-n-propylacetic acid], the “ionization of carboxylic group” value [7] is given as “significantly ionized” and the “half life time in combination therapy” value [8] is given as “even shorter than in a single therapy”.
